From ChEMBL document CHEMBL1127798, “Structure-activity relationships and pH dependence of binding of 8-alkyl-N5-deazapterins to dihydrofolate reductase” (J Med Chem, 1994) come the findings set out here.

Experiment [1] deals with T1, Dihydrofolate reductase (Homo sapiens, UniProt P00374).
T1 sequence (P00374 whole entry): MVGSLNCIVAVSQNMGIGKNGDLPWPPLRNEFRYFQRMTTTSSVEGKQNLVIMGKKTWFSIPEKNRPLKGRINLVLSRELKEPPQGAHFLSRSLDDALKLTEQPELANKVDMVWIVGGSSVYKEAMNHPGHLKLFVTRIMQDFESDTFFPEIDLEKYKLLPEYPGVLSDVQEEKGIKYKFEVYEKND
In words: Apparent dissociation constant at pH 6.6 for human dihydrofolate reductase in the absence of cofactor NADPH.

Experiment [2] addresses T1, Dihydrofolate reductase. In words: Apparent dissociation constant at pH 6.6 for human dihydrofolate reductase in the presence of cofactor NADPH.
Experiment [3] addresses T1, Dihydrofolate reductase. Description: Tested for the apparent dissociation constant for binding of compound to ternary NADPH complex with human dihydrofolate reductase using equation 11.
Experiment [4] concerns the target T1, Dihydrofolate reductase. Description: Tested for the apparent dissociation constant for binding of compound to binary NADPH complex with human dihydrofolate reductase using equations 11 and 12.
The target of experiment [5] is T1, Dihydrofolate reductase. Description: Tested for the apparent dissociation constant for binding of compound to binary NADPH complex with human dihydrofolate reductase using equation 16.
Experiment [6] concerns the target T1, Dihydrofolate reductase. In words: Tested for the apparent dissociation constant for binding of compound to ternary NADPH complex with human dihydrofolate reductase using equations 15 and 16.
Experiment [7] concerns the target T1, Dihydrofolate reductase. In words: Tested for the apparent dissociation constant for binding of compound to ternary NADPH complex with human dihydrofolate reductase using equation 4.
The target in experiment [8] is T1, Dihydrofolate reductase. Description: Tested for the apparent dissociation constant for binding of compound to binary NADPH complex with human dihydrofolate reductase using equation 11.
Experiment [9] addresses T1, Dihydrofolate reductase. Description: Tested for the apparent dissociation constant for binding of compound to binary NADPH complex with human dihydrofolate reductase using equation 4.

Regarding `CC(C)N1C=CC=C2C(=O)NC(N)N=C21` (stereo unspecified), the Kd was 34000 nM in experiment [1] and 1900 nM in experiment [2].
The corresponding values for `CCN1C=C(C)C=C2C(=O)NC(N)N=C21` (stereo unspecified) are 130000 nM and 16000 nM.
Take `CCN1C=CC=C2C(=O)NC(N)N=C21` (stereo unspecified): the Kd came to 60000 nM in experiment [1] and 13000 nM in experiment [2].
On to `NC1N=C2C(=CC=CN2Cc2ccccc2)C(=O)N1` (stereo unspecified), for which the Kd in experiment [1] was 1700 nM; in experiment [2], 700 nM.
As for `CCCN1C(C)=CC=C2C(=O)NC(N)N=C21` (stereo unspecified), the Kd in experiment [1] was 3400 nM; in [3], 450 nM; in experiment [4], 1200 nM; in experiment [5], 2800 nM; in [6], 1000 nM; in experiment [7] it was 0.6 nM. The Kd in [8] came to 2700 nM; in [2] it was 2000 nM; in experiment [9], 0.5 nM.
Take `CN1C=CC=C2C(=O)NC(N)N=C21` (stereo unspecified): the values for the Kd in experiment [1] and in experiment [2] were 118000 nM and 21000 nM, respectively.
Take `CCCN1C=CC=C2C(=O)NC(N)N=C21` (stereo unspecified): the Kd in [1] stood at 12000 nM; in experiment [3] it was 830 nM; in experiment [4] it was 5800 nM; in experiment [5], 2100 nM; in experiment [6] it was 1700 nM; in [7], 2.6 nM. Moreover, the figures for the Kd in experiment [8], in experiment [2] and in experiment [9] were 6500 nM, 4000 nM and 20.7 nM, respectively.
Turning to `CCCN1C=C(C)C=C2C(=O)NC(N)N=C21` (stereo unspecified), the Kd in experiment [1] worked out at 108000 nM; in experiment [2], 4600 nM.
On the same counts, the results for `CC1=C2C(=O)NC(N)N=C2N(CCC(C)C)C=C1` (stereo unspecified) are 1800 nM and 700 nM.
For the compound `CC1=C2C(=O)NC(N)N=C2N(CC(C)C)C=C1` (stereo unspecified), the Kd came out at 2400 nM in [1]; 30 nM in [3]; 2600 nM in experiment [4]; 2200 nM in [5]; 57 nM in experiment [6]; 0.1 nM in experiment [7]. For the same compound, the Kd in [8] was found to be 3000 nM; in experiment [2], 80 nM; in [9] it was 0.2 nM.
Regarding `CC1=CN(C(C)C)C2=NC(N)NC(=O)C2=C1` (stereo unspecified), the Kd in experiment [1] was found to be 60000 nM; in experiment [2], 18000 nM.
As for `CC(C)CN1C=CC=C2C(=O)NC(N)N=C21` (stereo unspecified), the Kd in experiment [1] was found to be 2200 nM; in [2] it was 600 nM.
On the same counts, the results for `CC1=CC=C2C(=O)NC(N)N=C2N1C` (stereo unspecified) are 21000 nM and 2900 nM.
As for `CC1=C2C(=O)NC(N)N=C2N(C)C=C1` (stereo unspecified), the Kd was 21000 nM in experiment [1] and 5100 nM in [2].
The corresponding values for `CC1=CN(C)C2=NC(N)NC(=O)C2=C1` (stereo unspecified) are 31000 nM and 500 nM.
